Experimental data taken from ChEMBL document CHEMBL1135020, “5-Bromo (or chloro)-6-azido-5,6-dihydro-2' -deoxyuridine and -thymidine derivatives with potent antiviral activity” (Bioorg Med Chem Lett, 2002).
pEC50, pIC50: −log10 of the molar value. The source made the active and inactive calls. The calls are words filed in the database; no cut-off is given here.

How the values were obtained:
Human alphaherpesvirus 1 = experiment: In vitro antiviral activity against Herpes simplex virus (HSV-1) was determined; assay type: functional, organism-based
CCRF-CEM [1] = experiment: Inhibitory concentration for spectrum antiviral activity against herpes viruses; assay type: functional, cell-based; details: Homo sapiens
CCRF-CEM [2] = experiment: Test was to evaluate selectivity against individual tumor cell line Leukemia (CCRF-CEM); assay type: functional; details: Homo sapiens
CAKI-1 = experiment: Test was to evaluate selectivity against individual tumor cell lines Renal cancer (CAKI-1); assay type: functional; details: Homo sapiens
CCRF-CEM [3] = experiment: In vitro anti-HIV screen using HIV-1 infected CD4 lymphocytes (CEM cell line), determines cytotoxicity; assay type: functional, cell-based; details: Homo sapiens
DMS-114 = experiment: Test was to evaluate selectivity against individual tumor cell lines Small cell lung cancer (DMS114); assay type: functional; details: Homo sapiens
Human gammaherpesvirus 4 = experiment: In vitro antiviral activity against Epstein Barr virus (EBV) was determined; assay type: functional, organism-based
Human alphaherpesvirus 2 = experiment: In vitro antiviral activity against Herpes simplex virus (HSV-2) was determined; assay type: functional, organism-based
M19-MEL [4] = experiment: Test was to evaluate selectivity against individual tumor cell lines Melanoma (M19-MEL); assay type: functional; details: Homo sapiens
Malme-3M [5] = experiment: Test was to evaluate selectivity against individual tumor cell lines Melanoma (MALME-3M); assay type: functional; details: Homo sapiens
SK-MEL-5 [6] = experiment: Test was to evaluate selectivity against individual tumor cell lines Melanoma (SK-MEL-5); assay type: functional; details: Homo sapiens
Human alphaherpesvirus 3 = experiment: In vitro antiviral activity against Varicella zoster virus (VZV) was determined; assay type: functional, organism-based
Human betaherpesvirus 5 = experiment: In vitro antiviral activity against Human cytomegalovirus (HCMV) was determined; assay type: functional, organism-based
RPMI-8226 = experiment: Test was to evaluate selectivity against individual tumor cell line Leukemia (RPMI-8226); assay type: functional; details: Homo sapiens
M19-MEL [7] = experiment: est was to evaluate selectivity against individual tumor cell line Melanoma (M19-MEL); assay type: functional; details: Homo sapiens
Malme-3M [8] = experiment: est was to evaluate selectivity against individual tumor cell line Melanoma (MALME-3M); assay type: functional; details: Homo sapiens
NCI-H522 = experiment: Test was to evaluate selectivity against individual tumor cell line Non small cell lung cancer (NCI-H522); assay type: functional; details: Homo sapiens
SF-268 = experiment: Test was to evaluate selectivity against individual tumor cell line CNS cancer (SF-268); assay type: functional; details: Homo sapiens
SK-MEL-5 [9] = experiment: est was to evaluate selectivity against individual tumor cell line Melanoma (SK-MEL-5); assay type: functional; details: Homo sapiens
Tumor Cell line = experiment: Test was to evaluate selectivity against individual tumor cell lines; NS= No selectivity; assay type: functional, cell-based; details: Homo sapiens

SMILES | pEC50 (Human alphaherpesvirus 1) | pIC50 (CCRF-CEM [1]) | GI50 (CCRF-CEM [2]) | GI50 (CAKI-1) | pIC50 (CCRF-CEM [3]) | GI50 (DMS-114) | pEC50 (Human gammaherpesvirus 4) | pEC50 (Human alphaherpesvirus 2) | GI50 (M19-MEL [4]) | GI50 (Malme-3M [5]) | GI50 (SK-MEL-5 [6]) | pEC50 (Human alphaherpesvirus 3) | pEC50 (Human betaherpesvirus 5) | GI50 (RPMI-8226) | GI50 (M19-MEL [7]) | GI50 (Malme-3M [8]) | GI50 (NCI-H522) | GI50 (SF-268) | GI50 (SK-MEL-5 [9]) | Activity (Tumor Cell line)
O=c1[nH]c(=O)n([C@H]2C[C@H](O)[C@@H](CO)O2)cc1Cl [CHLORODEOXYURIDINE] | 4.82 |  |  |  |  |  |  |  |  |  |  |  |  |  |  |  |  |  |  | 
[N-]=[N+]=NC1C(Br)C(=O)NC(=O)N1[C@H]1C[C@H](O)[C@@H](CO)O1 (some centres undefined) | 5.08 | 5.13 | 38 µM | 66.3 µM | 3.90 | 90.9 µM | 4.34 | 5.47 | 91.5 µM | 15.5 µM | 42.2 µM | 4.04 | 4.94 | 19.6 µM |  |  |  |  |  | 
[N-]=[N+]=NC1C(Cl)C(=O)NC(=O)N1[C@H]1C[C@H](O)[C@@H](CO)O1 (some centres undefined) | 6.48 | 4.26 | 26.3 µM |  | < 3.49 |  | 5.01 | 5.80 |  |  |  |  | 4.54 | 72.4 µM | 52.4 µM | 13.1 µM | 5.37 µM | 93.3 µM | 12.3 µM | 
CC1(Cl)C(=O)NC(=O)N([C@H]2C[C@H](O)[C@@H](CO)O2)C1N=[N+]=[N-] (some centres undefined) | < 3.50 | 3.87 |  |  | 3.95 |  | < 4.90 | < 3.50 |  |  |  |  | < 4.30 |  |  |  |  |  |  | inactive
CC1(Br)C(=O)NC(=O)N([C@H]2C[C@H](O)[C@@H](CO)O2)C1N=[N+]=[N-] (some centres undefined) | < 3.56 | 3.85 |  |  | 4.14 |  | 4.80 | < 3.56 |  |  |  | 3.98 | 4.82 |  |  |  |  |  |  | inactive
Nc1nc2c(ncn2COC(CO)CO)c(=O)[nH]1 [GANCICLOVIR] |  |  |  |  | < 3.41 |  |  |  |  |  |  |  | 6.11 |  |  |  |  |  |  | 
Nc1nc2c(ncn2COCCO)c(=O)[nH]1 [ACYCLOVIR] | 5.51 |  |  |  | < 3.36 |  | 5.40 | 5.21 |  |  |  |  |  |  |  |  |  |  |  | 
